Legend:
[1] = system: MCF7 breast cancer, NCI-H460 lung cancer, and SF-268 CNS cancer; test: NCI in vitro 3-cell-line anticancer panel (overall statement); assay type: cell-based; conditions: NCI 3-cell-line panel
Method: (§1) In vitro cytotoxicity tests were conducted at the NCI using an in vitro 3-cell-line panel consisting of MCF7 breast cancer, NCI-H460 lung cancer, and SF-268 CNS cancer. Each cell line was inoculated and incubated in microtiter plates. After 24 hours test samples were added to a final assay concentration of 2 μg/mL and the culture was incubated for 48 hours. Results for each test sample were reported as the percentage of growth of the treated cells when compared to untreated controls. Compounds which reduced the growth of any one of the cell lines […] against standard were considered to be active.

[2] = system: B16 melanoma; conditions: previously reported for compounds from stem bark of Taxus baccata; cited from earlier work
[3] = system: MCF7 breast cancer; test: NCI in vitro cytotoxicity test, 3-cell-line panel: MCF7; assay type: cell-based; conditions: 2 μg/mL, 48 hours incubation; less than 32% = active
Method: as §1

[4] = system: NCI-H460 lung cancer; test: NCI in vitro cytotoxicity test, 3-cell-line panel: NCI-H460; assay type: cell-based; conditions: 2 μg/mL, 48 hours incubation; less than 32% = active
Method: as §1

[5] = system: SF-268 CNS cancer; test: NCI in vitro cytotoxicity test, 3-cell-line panel: SF-268; assay type: cell-based; conditions: 2 μg/mL, 48 hours incubation; less than 32% = active
Method: as §1

Row | SMILES | anticancer activity in the 3-cell-line anticancer panel (in words) [1] | activity against B16 melanoma (in words) [2] | MCF-7 Breast cancer, percentage of growth (One Dose Primary Anticancer Assay) [3] | H-460 Lung cancer, percentage of growth (One Dose Primary Anticancer Assay) [4] | SF-268 CNS cancer, percentage of growth (One Dose Primary Anticancer Assay) [5]
1 | CCCCCC(=O)N[C@@H](c1ccccc1)[C@@H](O)C(=O)O[C@H]1C[C@@]2(O)[C@@H](OC(=O)c3ccccc3)[C@@H]3[C@]4(OC(C)=O)CO[C@@H]4C[C@H](O[C@@H]4OC[C@@H](O)[C@H](O)[C@H]4O)[C@@]3(C)C(=O)[C@H](O)C(=C1C)C2(C)C [7-(β-xylosyl)-10-deacetyltaxol C] | active | potent activity |  |  | 
2 | CCCCCC(=O)N[C@@H](c1ccccc1)[C@@H](O)C(=O)O[C@H]1C[C@@]2(O)[C@@H](OC(=O)c3ccccc3)[C@@H]3[C@]4(OC(C)=O)CO[C@@H]4C[C@H](O[C@@H]4OC[C@@H](O)[C@H](O)[C@H]4O)[C@@]3(C)C(=O)[C@H](OC(C)=O)C(=C1C)C2(C)C [7-(β-xylosyl)-taxol C] | active | potent activity |  |  | 
3 | CC(=O)O[C@H]1C(=O)[C@]2(C)[C@@H](O[C@@H]3OC[C@@H](O)[C@H](O)[C@H]3O)C[C@H]3OC[C@@]3(OC(C)=O)[C@H]2[C@H](OC(=O)c2ccccc2)[C@]2(O)C[C@H](OC(=O)[C@H](O)[C@@H](NC(=O)c3ccccc3)c3ccccc3)C(C)=C1C2(C)C [7-(β-xylosyl)-taxol] | active | potent activity |  |  | 
4 | C/C=C(\C)C(=O)N[C@@H](c1ccccc1)[C@@H](O)C(=O)O[C@H]1C[C@@]2(O)[C@@H](OC(=O)c3ccccc3)[C@@H]3[C@]4(OC(C)=O)CO[C@@H]4C[C@H](O)[C@@]3(C)C(=O)[C@H](OC(C)=O)C(=C1C)C2(C)C [Cephalomanine] |  |  | 15% | 19% | 30%
5 | CC(=O)O[C@H]1C(=O)[C@@]2(C)[C@H]([C@H](OC(=O)c3ccccc3)[C@]3(O)C[C@H](OC(=O)[C@H](O)[C@@H](NC(=O)c4ccccc4)c4ccccc4)C(C)=C1C3(C)C)[C@]1(OC(C)=O)CO[C@@H]1C[C@@H]2O [Paclitaxel] |  |  | 23% | 13% | 30%
6 | CC(=O)O[C@H]1C(=O)[C@@]2(C)[C@H]([C@H](OC(=O)c3ccccc3)[C@]3(O)C[C@H](OC(=O)[C@H](O)[C@@H](NC(=O)c4ccccc4)c4ccccc4)C(C)=C1C3(C)C)[C@]1(OC(C)=O)CO[C@@H]1C[C@@H]2O [TX003-17, paclitaxel] | exhibited activity in all three cell lines |  | 21% | 30% | 29%

— patent US7367933B2, “Screening of chemical compounds purified from biological sources” (Sequoia Sciences, Inc., priority 1999, dated 2008)
